In the supplement of paper PMC10883282:
± gives the standard deviation of the averaged measurements.

Tests used:
Assay in all cases: relative viability vs DMSO control (72 h) (fraction); higher = more viable cells
SW982 = test system: SW982
Summary of the method: (§1)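 Sarcoma cell lines were seeded in 384-well plates at densities chosen for 80–90% confluence, then 24 h later given 2.5 µl of serially diluted compound drawn from source plates spanning 10 mM to 0.0002 mM. They were held 72 h at 37 °C, 5% CO2, with 0.1% DMSO vehicle and a 5 µM positive control included. Relative viability was read with ATPLite as percent growth and averaged over up to triplicate wells. Rescaling placed full at 1 and none at 0.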

SK-ES-1 = test system: SK-ES-1
Summary of the method: as §1

RD = test system: RD
Summary of the method: as §1

KHOS-240S = test system: KHOS-240S
Summary of the method: as §1

RD-ES = test system: RD-ES
Summary of the method: as §1

O=C(Nc1nc2cccc(-c3ccc(CN4CCS(=O)(=O)CC4)cc3)n2n1)C1CC1 [Filgotinib]
relative viability
Settings	KHOS-240S	RD	RD-ES	SK-ES-1	SW982
0.00017 µM	1.04 ± 0.013	1.02 ± 0.053	0.932 ± 0.05	1.02 ± 0.044	1 ± 0.025
0.00051 µM	1.08 ± 0.038	1.04 ± 0.062	0.886 ± 0.03	1.06 ± 0.038	1.04 ± 0.028
0.00152 µM	1.06 ± 0.028	1.04 ± 0.066	0.957 ± 0.033	1.07 ± 0.046	1.06 ± 0.04
0.00457 µM	1.08 ± 0.033	1.1 ± 0.037	0.946 ± 0.0095	1.04 ± 0.017	1.08 ± 0.03
0.01372 µM	1.07 ± 0.029	1.07 ± 0.042	0.928 ± 0.022	1.06 ± 0.083	1.05 ± 0.012
0.04115 µM	1.07 ± 0.027	1.1 ± 0.065	0.944 ± 0.014	1.07 ± 0.037	1.06 ± 0.012
0.1235 µM	1.03 ± 0.024	1.07 ± 0.086	0.949 ± 0.02	1.04 ± 0.039	1.02 ± 0.031
0.3704 µM	1.06 ± 0.024	1.1 ± 0.049	0.957 ± 0.014	1.03 ± 0.037	1.06 ± 0.013
1.111 µM	1.054 ± 0.0083	1.1 ± 0.038	0.978 ± 0.037	1 ± 0.042	1.02 ± 0.023
3.333 µM	1.02 ± 0.019	1.01 ± 0.011	0.924 ± 0.043	1.05 ± 0.035	1.06 ± 0.024
10 µM	0.932 ± 0.03	0.846 ± 0.061	0.925 ± 0.013	0.8196 ± 0.0029	0.939 ± 0.071

COc1cc(OC)c(/C=C/S(=O)(=O)Cc2ccc(OC)c(NCC(=O)O)c2)c(OC)c1 [Rigosertib]
relative viability
Settings	KHOS-240S	RD	RD-ES	SK-ES-1	SW982
0.00017 µM	1.06 ± 0.011	1.08 ± 0.051	0.999 ± 0.027	1 ± 0.054	1.06 ± 0.017
0.00051 µM	1.07 ± 0.013	1.09 ± 0.033	1 ± 0.02	1.02 ± 0.011	1.04 ± 0.038
0.00152 µM	1.051 ± 0.0029	1.08 ± 0.044	1 ± 0.011	0.98 ± 0.058	1.05 ± 0.035
0.00457 µM	1.05 ± 0.037	1.094 ± 0.0053	0.993 ± 0.051	1.08 ± 0.015	1.07 ± 0.036
0.01372 µM	1.03 ± 0.03	1.05 ± 0.058	1.01 ± 0.019	1.03 ± 0.052	1.07 ± 0.045
0.04115 µM	0.981 ± 0.049	1.04 ± 0.029	1 ± 0.04	0.987 ± 0.028	1.06 ± 0.036
0.1235 µM	0.385 ± 0.0043	0.825 ± 0.044	0.732 ± 0.028	0.252 ± 0.027	0.92 ± 0.026
0.3704 µM	0.228 ± 0.0065	0.372 ± 0.055	0.143 ± 0.0095	0.038 ± 0.0022	0.52 ± 0.027
1.111 µM	0.168 ± 0.0086	0.215 ± 0.005	0.0474 ± 0.0014	0.0202 ± 0.0012	0.26 ± 0.018
3.333 µM	0.15 ± 0.0094	0.23 ± 0.018	0.031 ± 0.0034	0.0195 ± 0.00057	0.256 ± 0.012
10 µM	0.135 ± 0.016	0.256 ± 0.0056	0.027 ± 0.0024	0.0239 ± 0.0018	0.273 ± 0.014
